The text below walks through data of PubChem BioAssay (NCI).

Among the test systems are UO-31 renal; COLO 205 colon; K-562 leukemia; NCI-H522 lung; MOLT-4 leukemia; SNB-19 CNS; CCRF-CEM leukemia; HCT-15 colon; A498 renal; SK-MEL-28 melanoma.
What all share (assay): NCI tumour cell line growth inhibition, 48 h

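In this assay, cells in 96-well plates receive the compound at five concentrations for 48 hours. Endpoints are linearly interpolated between the surrounding concentrations. Here, GI50 denotes the concentration required for 50% inhibition of growth. TGI marks complete inhibition of growth.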 Where only a bound is given, the exact number is not on record here.

On to `COc1cc(O)c(C(=O)C2Cc3ccccc32)c(OC)c1` (stereo unspecified), for which the TGI is > 100 µM in the assay with UO-31 renal; > 100 µM in the assay on COLO 205 colon; > 100 µM in the assay with K-562 leukemia; > 100 µM in the assay on NCI-H522 lung; 45.8 µM in the assay on MOLT-4 leukemia; > 100 µM in the assay on SNB-19 CNS. Also, the TGI in the assay on CCRF-CEM leukemia, in the assay with HCT-15 colon and in the assay on A498 renal was > 100 µM in each case.

For the molecule `COc1cc2c3c(c4ccc(O)cc4c2cc1OC)[C@@H](O)[C@@H]1CCCN1C3`, the TGI was determined as 0.0211 µM in the assay with UO-31 renal; 0.145 µM with COLO 205 colon; 0.00781 µM in the assay with NCI-H522 lung; 0.00216 µM with SNB-19 CNS; 0.0073 µM in the assay on CCRF-CEM leukemia; 0.204 µM with HCT-15 colon. In addition, the TGI in the assay on SK-MEL-28 melanoma is < 0.001 µM; in the assay with A498 renal, 0.00625 µM.

Take `C=C(C)[C@@H]1CC[C@]2(C(=O)O)CC[C@]3(C)[C@H](CC[C@@H]4[C@@]5(C)CCC(N)C(C)(C)[C@@H]5CC[C@]43C)[C@@H]12` (stereo partly specified): in the assay with K-562 leukemia, the GI50 was 0.682 µM and the TGI was determined as 3.36 µM. For the same molecule, in the assay with CCRF-CEM leukemia, the GI50 is 2.11 µM and the TGI turned out to be 5.53 µM.

As for `CC(=O)OC1(C(C)=O)CC2(c3ccccc3)OC1(c1ccccc1)c1ccccc12` (stereo unspecified), the TGI was 80.1 µM in the assay on UO-31 renal; 21.4 µM in the assay on COLO 205 colon; 29.8 µM in the assay with NCI-H522 lung; 40.1 µM with MOLT-4 leukemia; > 100 µM in the assay on SNB-19 CNS; > 100 µM in the assay on HCT-15 colon. For the same molecule, the TGI in the assay on SK-MEL-28 melanoma is > 100 µM.

Turning to `N#C/C(=C/c1ccc([N+](=O)[O-])o1)c1ccccc1`, the TGI with UO-31 renal, in the assay with COLO 205 colon, in the assay with K-562 leukemia, with NCI-H522 lung, in the assay with MOLT-4 leukemia and with SNB-19 CNS was > 100 µM each time. In addition, the TGI with CCRF-CEM leukemia and in the assay on SK-MEL-28 melanoma was > 100 µM in each case.

For `CCc1ccc([OH2+])c(C(=O)[O-])c1.CCc1ccc([OH2+])c(C(=O)[O-])c1.CCc1ccc([OH2+])c(C(=O)[O-])c1.CCc1ccc([OH2+])c(C(=O)[O-])c1.[Cu+2].[Cu+2]`, the GI50 in the assay on UO-31 renal is > 100 µM; in the assay on COLO 205 colon it was > 100 µM; in the assay with K-562 leukemia, 38.1 µM; in the assay with NCI-H522 lung, > 86 µM; in the assay with MOLT-4 leukemia it was 34.2 µM; with SNB-19 CNS, 36.8 µM. Further, the GI50 is > 88.2 µM in the assay on HCT-15 colon, > 100 µM in the assay with SK-MEL-28 melanoma and 21.2 µM in the assay with A498 renal. The TGI with UO-31 renal was > 100 µM; with COLO 205 colon it was > 100 µM; with K-562 leukemia it was > 73.9 µM; with NCI-H522 lung it was > 100 µM; in the assay on MOLT-4 leukemia, > 100 µM; in the assay on SNB-19 CNS, > 61.8 µM. Also, the TGI was > 100 µM in the assay with HCT-15 colon, > 100 µM in the assay with SK-MEL-28 melanoma and 40.5 µM in the assay with A498 renal.

In the case of `O=C1c2c(c3c4ccccc4n(CC4CO4)c3c3[nH]c4ccccc4c23)C(=O)N1Cc1ccccc1` (stereo unspecified), the TGI in the assay with UO-31 renal, in the assay on K-562 leukemia, in the assay with NCI-H522 lung, in the assay with MOLT-4 leukemia, in the assay on SNB-19 CNS and with CCRF-CEM leukemia was > 100 µM in each case. Moreover, the TGI in the assay on HCT-15 colon, in the assay with SK-MEL-28 melanoma and with A498 renal was > 100 µM in each case.

Regarding `N#Cc1sc2nc3c(c(-c4ccccc4)c2c1N)CCCC3`, the TGI in the assay with UO-31 renal, in the assay on K-562 leukemia, in the assay on NCI-H522 lung, in the assay with MOLT-4 leukemia, in the assay with SNB-19 CNS and in the assay with CCRF-CEM leukemia was > 100 µM in each case. Further, the TGI with HCT-15 colon, in the assay with SK-MEL-28 melanoma and in the assay on A498 renal was > 100 µM each time.

As for `CCNC(=O)O/N=C1\CCC2[C@@H]3CC=C4C[C@@H](OC(=O)NCC)CC[C@]4(C)C3CC[C@]12C` (stereo partly specified), the TGI turned out to be 2.62 µM in the assay on UO-31 renal; 1.73 µM in the assay on COLO 205 colon; 4 µM in the assay on K-562 leukemia; 10.6 µM in the assay with NCI-H522 lung; 3.2 µM in the assay on MOLT-4 leukemia; 14.1 µM in the assay with SNB-19 CNS. Further, the TGI in the assay with HCT-15 colon was 12.5 µM; in the assay on SK-MEL-28 melanoma, 12.1 µM; in the assay on A498 renal it was > 100 µM.

Take `COc1ccccc1NC(=O)c1sc2ncn(CCOc3ccccc3)c(=O)c2c1C`: the GI50 in the assay with UO-31 renal was 12.5 µM; in the assay on COLO 205 colon, 2.88 µM; with K-562 leukemia it was 0.761 µM; in the assay on NCI-H522 lung it was 1.8 µM; in the assay with SNB-19 CNS, > 50 µM; in the assay on HCT-15 colon, 0.431 µM. For the same molecule, the TGI is > 50 µM in the assay with UO-31 renal; > 50 µM with COLO 205 colon; 4.39 µM in the assay with K-562 leukemia; > 50 µM with NCI-H522 lung; > 50 µM in the assay with SNB-19 CNS; 15.1 µM in the assay on HCT-15 colon.

Regarding `COC(=O)CC(=O)OC1C[C@@H]2CCC3C(C)(C)CCC[C@]3(C)C23CC[C@@]1(C)C3` (stereo partly specified), the TGI is 39.8 µM with UO-31 renal; 33.9 µM in the assay on COLO 205 colon; > 100 µM in the assay with K-562 leukemia; 25.7 µM in the assay with NCI-H522 lung; > 100 µM in the assay with MOLT-4 leukemia; 31.6 µM in the assay with SNB-19 CNS. For the same molecule, the results for the TGI with CCRF-CEM leukemia, with HCT-15 colon and with SK-MEL-28 melanoma were > 100 µM, 36.1 µM and 38.8 µM, respectively.

With `CCCCCCCCCC(=O)Oc1ccc(/C(=C(/C)c2ccccc2)c2ccc(OCCN3CCCC3)cc2)cc1`, the GI50 was 6.72 µM in the assay with UO-31 renal; 9.36 µM in the assay on NCI-H522 lung; 8.61 µM in the assay with MOLT-4 leukemia; 9.04 µM in the assay with SNB-19 CNS; 9.51 µM in the assay with CCRF-CEM leukemia; 6.69 µM in the assay on HCT-15 colon. Moreover, the TGI turned out to be 14.2 µM with UO-31 renal; 18.4 µM in the assay on NCI-H522 lung; 20.3 µM with MOLT-4 leukemia; 17.7 µM in the assay with SNB-19 CNS; 22.3 µM with CCRF-CEM leukemia; 13.1 µM in the assay on HCT-15 colon.

Regarding `COc1ccc2c(c1O)[C@@]13CCCC=C1[C@@H](C2)N(C)CC3`, the TGI is > 100 µM in the assay on UO-31 renal; > 100 µM in the assay with COLO 205 colon; > 100 µM in the assay with K-562 leukemia; 76.2 µM with NCI-H522 lung; > 100 µM in the assay on MOLT-4 leukemia; > 100 µM in the assay with SNB-19 CNS. The TGI in the assay on CCRF-CEM leukemia, with HCT-15 colon and in the assay on SK-MEL-28 melanoma was > 100 µM in each case.

Turning to `CSCSCC(CO)NC(=O)/C=C/c1c(C)[nH]c(=O)[nH]c1=O` (stereo unspecified), the TGI in the assay on UO-31 renal, in the assay with K-562 leukemia, in the assay on MOLT-4 leukemia, with SNB-19 CNS, with CCRF-CEM leukemia and in the assay with HCT-15 colon was > 100 µM in each case. Besides, the TGI with SK-MEL-28 melanoma and with A498 renal was > 100 µM throughout.
